For test [1], the target named is T1, hOX2R (Homo sapiens, UniProt O43614).
T1 construct: expressed in transfected cells
T1 sequence (O43614 1-444): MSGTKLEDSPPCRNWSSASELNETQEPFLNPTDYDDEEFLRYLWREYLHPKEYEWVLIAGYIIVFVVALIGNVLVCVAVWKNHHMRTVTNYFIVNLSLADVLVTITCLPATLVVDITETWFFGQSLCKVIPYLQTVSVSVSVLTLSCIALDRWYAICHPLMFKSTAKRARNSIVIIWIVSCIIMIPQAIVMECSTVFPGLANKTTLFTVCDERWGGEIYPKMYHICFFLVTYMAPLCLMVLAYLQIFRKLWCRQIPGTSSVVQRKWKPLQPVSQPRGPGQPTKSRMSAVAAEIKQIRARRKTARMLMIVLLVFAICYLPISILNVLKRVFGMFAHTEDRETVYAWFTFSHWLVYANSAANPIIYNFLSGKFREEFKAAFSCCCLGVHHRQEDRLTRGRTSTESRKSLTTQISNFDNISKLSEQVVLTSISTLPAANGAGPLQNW
The test is described as follows: In vitro test of OX2R: calcium signal change in cells detected with FLIPR. The format is cell-based. The note with it: HEK293-OX2 stable cell strain, Fluo-4 AM calcium signal, Orexin A at EC70. The method, then:
(§1) The inhibitive effect of a compound on OX1 and OX2 GPCR receptor was evaluated by detecting calcium signal change in cells with FLIPR, and IC50 value of compound was used as an indication.
(§2) Experimental Materials: • Cell line: HEK293-OX1 and OX2 stable cell strain • HEK293-OX1 cell culture media (DMEM, Invitrogen#11960-044, 10% serum Gibco#10099141, L-Glutamine 1×, Gibco#25030, sodium pyruvate 1×, Gibco #11360, Geneticin 300 μg/ml, Gibco #10131). • HEK293-OX2 cell culture media (DMEM, Invitrogen#11960-044, 10% serum Gibco#10099141, L-Glutamine 1×, Gibco#25030, sodium pyruvate 1×, Gibco #11360, Geneticin 300 μg/ml, Gibco #10131, Blasticin 2 μg/ml, Invitrogen # R21001). • Pancreatic enzyme (Invitrogen, #25200-072) • DPBS (Hyclone, #SH30028.01B) • Fluo-4 AM, Invitrogen# F14202 • F-127, Invitrogen # P3000MP • Probenecid, Sigma # P8761 • 384-well cell plate, Greiner #781946 • 384-well compound plate, Greiner #781280 • CO2 incubator, Thermo#371 • Centrifuge, Eppendorf #5810R • Vi-cell cytometry, Beckman Coulter • POD 810 Plate Assembler Automatic microplate pretreatment system • Labcyte FLIPR, Molecular Device.
(§3) a) cell inoculation (HEK293-OX1 and HEK293-OX2 cells) • 1) The medium trypsin, and DPBS were preheated at 37° C. under water bath. Culture medium of cells was sucked and cells were washed with 10 mL DPBS. • 2) The preheated trypsin was added into the culture bottle which was rotated so that trypsin uniformly covered the bottle. It was placed in an incubator (37° C., 5% CO2) to digest for 1-2 minutes; • 3) Each T150 was suspended with 10-15 mL of culture medium, and centrifuged at 800 rpm for 5 minutes. Cells were resuspended with 10 mL medium, and 1 mL of the cell re-suspension was sucked out and counted with Vi-cell cytometry. • 4) The OX1 cells were diluted with culture medium to 5×10^5 cells/mL, and OX2 cells were diluted to 4×10^5 cells/mL. The diluted cells were added into 384 plate (Greiner. 781946) with multichannel pipettes (50 μL/hole, OX1 cells: 25000 cells/hole; and OX2 cells: 20000 cells/hole). The cell plate was placed in an incubator (37° C., 5% CO2) overnight.
(§4) b) loading of the compound: • 1) DMSO was used to dilute the compound into 20 mM by using 3-fold dilution. 8 gradients in duplicate wells were used. Echo liquid handler was used to add the compound into a compound plate. Then 20 μL buffer was added to ensure that the final DMSO concentration was 0.1%.
(§5) c) FLIPR Experiment: • 1) The cell culture medium in 384-well plate was washed away with a vacuum pump. 30 μL fluorescent dye Fluo4AM was added. […] 8 gradients in duplicate wells were used. Then the DMSO plate was prepared and the DMSO concentration was 0.5%. The cell plate, Orexin A plate, and DMSO plate were placed into FLIPR respectively, and the fluorescence values were read. • 3) EC70 value was calculated based on EC50 value of Orexin A. 5×EC70 solution was prepared and added into a 384-well compound plate with multichannel pipettes. The plate was placed on ice for preservation. • 4) In the FLIPR, the compound plate, 5×EC70 plate, cell plate and FLIPR tips were placed respectively. The program was run and the fluorescence values were read.
(§6) d) Data Analysis: Prism5.0 was used to analysis the data, and the IC50 value of the compound was calculated.

The target of test [2] is T2, hOX1R (Homo sapiens, UniProt O43613).
T2 construct: expressed in transfected cells
T2 sequence (O43613 1-425): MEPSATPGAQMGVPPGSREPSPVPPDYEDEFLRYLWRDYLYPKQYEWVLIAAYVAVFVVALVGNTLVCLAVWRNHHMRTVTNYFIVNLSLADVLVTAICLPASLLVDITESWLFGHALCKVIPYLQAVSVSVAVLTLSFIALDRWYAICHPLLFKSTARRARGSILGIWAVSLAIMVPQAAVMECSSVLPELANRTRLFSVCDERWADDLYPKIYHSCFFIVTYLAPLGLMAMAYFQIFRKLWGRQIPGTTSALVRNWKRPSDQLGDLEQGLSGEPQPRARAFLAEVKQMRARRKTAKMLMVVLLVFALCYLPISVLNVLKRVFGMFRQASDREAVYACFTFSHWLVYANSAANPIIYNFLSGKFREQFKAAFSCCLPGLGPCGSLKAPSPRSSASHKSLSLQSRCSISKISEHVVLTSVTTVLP
Put plainly: In vitro test of OX1R: calcium signal change in cells detected with FLIPR. The format is cell-based. The note with it: HEK293-OX1 stable cell strain, Fluo-4 AM calcium signal, Orexin A at EC70. The method, then: as §1, §2, §3, §4, §5, §6

Setting [3] is: read-out: IC50 detected in FLIPR, hOX2R.
The mark [4] stands for this setting: read-out: IC50 detected in FLIPR, hOX1R.

Molecules are shown by their SMILES. Where two headings read alike, the source gives them in different places.

As usually defined, the IC50 is the midpoint of a concentration-inhibition curve.

With `Cc1ccc(-c2ncccn2)c(C(=O)N2C3CC[C@H]2CC[C@@H]3COc2ccc(F)cc2)c1` [Example 29], the IC50 in test [1] (setting [3]) was found to be 121 nM; in test [2] (setting [4]), 68 nM.
On to `Cc1ccc(-n2cccn2)c(C(=O)N2C3CC[C@H]2CC[C@@H]3COc2ccc(F)cn2)c1` [Example 20], for which the IC50 was found to be 26 nM in test [1] (IC50 detected in FLIPR, hOX2R) and 7 nM in test [2] (IC50 detected in FLIPR, hOX1R).
For `Cc1ccc(-c2ncccn2)c(C(=O)N2C3CCC(COc4ccc(F)cn4)C2CC3)c1` (single isomer, unassigned) [Example 7], the values for the IC50 in test [1] (setting [3]) and in test [2] (setting [4]) were 291 nM and 1270 nM, respectively.
As to `Cc1ccc(-c2ncccn2)c(C(=O)N2C3CCC2C(F)(COc2ccc(F)cn2)CC3)c1` (stereo not shown) [Example 26], the IC50 in test [1] (setting [3]) was 37 nM; in test [2] (setting [4]), 48 nM.
Take `Cc1ccc(-c2ncccn2)c(C(=O)N2C3CC[C@H]2CC[C@@H]3COc2cccnc2)c1` [Example 31]: the half-maximal inhibitory concentration (IC50) was determined as 221 nM in test [1] (IC50 detected in FLIPR, hOX2R) and 305 nM in test [2] (IC50 detected in FLIPR, hOX1R).
The matching figures for `O=C(c1c(F)cccc1-n1nccn1)N1C2CC[C@H]1CC[C@@H]2COc1ccc(F)cn1` [Example 9]: 15 nM and 24 nM.
Take `Cc1ccc(-c2ncccn2)c(C(=O)N2C3CC[C@H](COc4ccc(F)cn4)[C@@H]2CC3)c1` [Example 6]: the IC50 in test [1] (setting [3]) is 4190 nM; in test [2] (setting [4]), 2550 nM.
On to `Cc1ccc(-c2ncccn2)c(C(=O)N2C3CCC(COc4ncc(Cl)cc4F)C2CC3)c1` (stereo not shown) [Example 25], for which the IC50 in test [1] (setting [3]) stood at 124 nM; in test [2] (setting [4]), 113 nM.
The matching figures for `Cc1ccc(-c2ncccn2)c(C(=O)N2C3CCC(COc4ccc(F)cn4)C2CC3)c1` (single isomer, unassigned) [Example 8]: 4610 nM and 4260 nM.
With `Cc1ccc(-n2nccn2)c(C(=O)N2C3CCC(COc4ccc(F)cn4)C2CC3)c1` (single isomer, unassigned) [Example 3], the IC50 was 1420 nM in test [1] (setting [3]) and 2070 nM in test [2] (setting [4]).
Take `Cc1ccc(-c2ncccn2)c(C(=O)N2C3CCC2[C@@H](COc2ccccn2)CC3)c1` (stereo partly shown) [Example 23]: the IC50 was found to be 97 nM in test [1] (IC50 detected in FLIPR, hOX2R) and 45 nM in test [2] (IC50 detected in FLIPR, hOX1R).
Consider `Cc1ccc(-c2ncccn2)c(C(=O)N2C3CC[C@H]2CC[C@@H]3COc2ccncc2)c1` [Example 32], for which the IC50 in test [1] (setting [3]) was 6 nM; in test [2] (setting [4]), 7 nM.
Consider `Cc1nc(C(=O)N2C3CC[C@H]2CC[C@@H]3COc2ccc(F)cn2)c(-c2ccccc2)s1` [Example 10], for which the IC50 in test [1] (IC50 detected in FLIPR, hOX2R) turned out to be 73 nM; in test [2] (IC50 detected in FLIPR, hOX1R) it was 29 nM.
The matching figures for `Cc1ccc(OCC2CCC3CCC2N3C(=O)c2cc(C)ccc2-c2ncccn2)nc1` (stereo not shown) [Example 24]: 87 nM and 56 nM.
The matching figures for `Cc1ccc(-c2nccs2)c(C(=O)N2C3CC[C@H]2CC[C@@H]3OCc2ccc(F)cn2)c1` [Example 37]: 36 nM and 20 nM.
Regarding `Cc1ccc(-c2ccccn2)c(C(=O)N2C3CC[C@H]2CC[C@@H]3COc2ccc(F)cn2)c1` [Example 11], the 50% inhibitory concentration (IC50) came to 363 nM in test [1] (setting [3]) and 321 nM in test [2] (setting [4]).
Regarding `Cc1ccc(-c2cccnc2)c(C(=O)N2C3CCC2[C@@H](COc2ccc(F)cn2)CC3)c1` (stereo partly shown) [Example 33], the IC50 in test [1] (IC50 detected in FLIPR, hOX2R) is 24 nM; in test [2] (IC50 detected in FLIPR, hOX1R), 10 nM.
Regarding `Cc1ccc(-c2ncccn2)c(C(=O)N2C3CCC(c4nc5ccccc5o4)C2CC3)c1` (stereo not shown) [Example 28], the IC50 in test [1] (IC50 detected in FLIPR, hOX2R) was 23 nM; in test [2] (IC50 detected in FLIPR, hOX1R), 34 nM.
`Cc1cccc(C(=O)N2C3CC[C@H]2CC[C@@H]3COc2ccc(F)cn2)c1` [Example 21]: the results for the IC50 in test [1] (setting [3]) and in test [2] (setting [4]) were 741 nM and 567 nM, respectively.
Take `Cc1ccc(-c2ncccn2)c(C(=O)N2C3CC[C@H]2CC[C@@H]3COc2ccc(F)cc2F)c1` [Example 30]: the IC50 in test [1] (IC50 detected in FLIPR, hOX2R) was 262 nM; in test [2] (IC50 detected in FLIPR, hOX1R), 489 nM.
Regarding `O=C(c1cc(Cl)ccc1-n1nccn1)N1C2CC[C@H]1CC[C@@H]2COc1ccc(F)cn1` [Example 16], the IC50 was found to be 440 nM in test [1] (IC50 detected in FLIPR, hOX2R) and 56 nM in test [2] (IC50 detected in FLIPR, hOX1R).
For `Cc1ccc(-c2cncnc2)c(C(=O)N2C3CCC2[C@@H](COc2ccc(F)cn2)CC3)c1` (stereo partly shown) [Example 34], in that order: 2510 nM and 2300 nM.
`O=C(c1cc(F)ccc1-n1nccn1)N1C2CC[C@H]1CC[C@@H]2COc1ccc(F)cn1` [Example 14]: the IC50 in test [1] (IC50 detected in FLIPR, hOX2R) was 20 nM; in test [2] (IC50 detected in FLIPR, hOX1R) it was 16 nM.
As for `O=C(c1cc(Cl)ccc1-c1ncccn1)N1C2CC[C@H]1CC[C@@H]2COc1ccc(F)cn1` [Example 18], the IC50 in test [1] (IC50 detected in FLIPR, hOX2R) was determined as 904 nM; in test [2] (IC50 detected in FLIPR, hOX1R), 127 nM.
In the case of `O=C(c1cc(Cl)ccc1-n1ccnn1)N1C2CC[C@H]1CC[C@@H]2COc1ccc(F)cn1` [Example 19], the IC50 in test [1] (setting [3]) amounted to 372 nM; in test [2] (setting [4]), 41 nM.
As to `Cc1ccc(-c2ncccn2)c(C(=O)N2C[C@H](COc3ccc(F)cn3)CC[C@H]2C)c1` [MK6096, reference compound], the IC50 in test [1] (setting [3]) was 29 nM; in test [2] (setting [4]), 36 nM.
Turning to `O=C(c1cc(F)ccc1-c1ncccn1)N1C2CC[C@H]1CC[C@@H]2COc1ccc(F)cn1` [Example 17], the results for the IC50 in test [1] (setting [3]) and in test [2] (setting [4]) were 47 nM and 43 nM, respectively.
For `O=C(c1ccc(F)cc1-n1nccn1)N1C2CC[C@H]1CC[C@@H]2COc1ccc(F)cn1` [Example 15], the IC50 in test [1] (IC50 detected in FLIPR, hOX2R) was found to be 55 nM; in test [2] (IC50 detected in FLIPR, hOX1R) it was 37 nM.
The matching figures for `Cc1ccc(-c2ncccn2)c(C(=O)N2C3CCC(C(=O)Nc4ccccc4O)C2CC3)c1` (stereo not shown) [Example 27]: 3000 nM and 3000 nM.
For the compound `Cc1ccc(-c2ccncc2)c(C(=O)N2C3CC[C@H]2CC[C@@H]3COc2ccc(F)cn2)c1` [Example 13], the IC50 in test [1] (IC50 detected in FLIPR, hOX2R) was 663 nM; in test [2] (IC50 detected in FLIPR, hOX1R), 47 nM.
Consider `Cc1ccc(C)c(C(=O)N2C3CC[C@H]2CC[C@@H]3OCc2ccc(F)cn2)c1` [Example 36], for which the IC50 in test [1] (setting [3]) is 195 nM; in test [2] (setting [4]) it was 217 nM.
`Cc1ccc(-n2nccn2)c(C(=O)N2C3CCC(COc4ccc(F)cn4)C2CC3)c1` (single isomer, unassigned) [Example 4]: the IC50 in test [1] (setting [3]) was determined as 195 nM; in test [2] (setting [4]) it was 217 nM.

The record behind these values is patent US10100047B2, “Piperidine derivatives as orexin receptor antagonist” (SHANGHAI HAIYAN PHARMACEUTICAL TECHNOLOGY CO., LTD., priority 2014, dated 2018).
